{"source": "patent US9029377B2", "about": "“Platelet-activating factor receptor antagonists” (Merck Sharp & Dohme Corp., priority 2009, dated 2015)", "biological_target": "PAFR (Homo sapiens, UniProt P25105)", "sequence (P25105 whole entry)": "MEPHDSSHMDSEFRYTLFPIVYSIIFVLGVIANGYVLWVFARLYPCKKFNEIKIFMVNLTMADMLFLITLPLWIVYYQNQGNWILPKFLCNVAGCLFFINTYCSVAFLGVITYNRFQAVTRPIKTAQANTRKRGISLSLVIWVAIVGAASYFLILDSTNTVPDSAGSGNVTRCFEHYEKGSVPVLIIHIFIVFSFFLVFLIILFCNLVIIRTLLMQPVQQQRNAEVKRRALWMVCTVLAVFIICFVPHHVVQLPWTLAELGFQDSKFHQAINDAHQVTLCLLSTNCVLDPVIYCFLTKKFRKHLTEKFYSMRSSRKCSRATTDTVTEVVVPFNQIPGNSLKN", "assay": "PAF Binding Assay (PAFR binding)", "data": [{"molecule": "CCc1cc(-c2ncns2)ccc1S(=O)(=O)N[C@H]1CCC[C@@H](n2cnnc2)C1", "note": "[Compound 2Aaz, 2-ethyl-4-(1,2,4-thiadiazol-5-yl)-N-[(1S,3R)-3-(4H-1,2,4-triazol-4-yl)cyclohexyl]benzenesulfonamide]", "values": [{"measurement": "IC50", "value": 390, "unit": "nM"}]}, {"molecule": "O=S(=O)(N[C@H]1CCC[C@@H](n2cnnc2)C1)c1cc(F)cc(F)c1", "note": "[Compound 2Ma, 3,5-difluoro-N-[(1S,3R)-3-(4H-1,2,4-triazol-4-yl)cyclohexyl]benzenesulfonamide]", "values": [{"measurement": "IC50", "value": 2900, "unit": "nM"}]}, {"molecule": "CCc1cc(-c2cccnc2)ccc1S(=O)(=O)N[C@H]1CCC[C@@H](n2cnnc2)C1", "note": "[Compound 2Ao, 2-ethyl-4-pyridin-3-yl-N-[(1S,3R)-3-(4H-1,2,4-triazol-4-yl)cyclohexyl]benzenesulfonamide]", "values": [{"measurement": "IC50", "value": 159, "unit": "nM"}]}, {"molecule": "CCc1cc(-c2ccc(O)cc2)ccc1S(=O)(=O)N[C@H]1CCC[C@@H](n2cnnc2)C1", "note": "[Compound 2Aad, 3-ethyl-4′-hydroxy-N-[(1S,3R)-3-(4H-1,2,4-triazol-4-yl)cyclohexyl]biphenyl-4-sulfonamide]", "values": [{"measurement": "IC50", "value": 36, "unit": "nM"}]}, {"molecule": "O=S(=O)(N[C@H]1CCC[C@@H](n2cnnc2)C1)c1cc(-c2ccc(F)cc2)cc(C(F)(F)F)c1", "note": "[Compound 3Ac, 4′-fluoro-N-[(1S,3R)-3-(4H-1,2,4-triazol-4-yl)cyclohexyl]-5-(trifluoromethyl)biphenyl-3-sulfonamide]", "values": [{"measurement": "IC50", "value": 6.2, "unit": "nM"}]}, {"molecule": "O=S(=O)(N[C@H]1CCC[C@@H](c2cccnc2)C1)c1ccc(-c2noc(C3CC3)n2)cc1", "note": "(relative stereo) [Compound 8e, 4-(5-cyclopropyl-1,2,4-oxadiazol-3-yl)-N-(3-pyridin-cis-3-ylcyclohexyl)benzenesulfonamide]", "values": [{"measurement": "IC50", "value": 1.9, "unit": "nM"}]}, {"molecule": "O=S(=O)(N[C@H]1CCC[C@@H](n2cnnc2)C1)c1ccc(-c2noc(C3CC3)n2)cc1C1CC1", "note": "[Compound 2Ka, 2-cyclopropyl-4-(5-cyclopropyl-1,2,4-oxadiazol-3-yl)-N-[(1S,3R)-3-(4H-1,2,4-triazol-4-yl)cyclohexyl]benzenesulfonamide]", "values": [{"measurement": "IC50", "value": 2.7, "unit": "nM"}]}, {"molecule": "O=S(=O)(N[C@H]1CCC[C@@H](n2cnnc2)C1)c1cc(-c2cc3ccccc3s2)cc(C(F)(F)F)c1", "note": "[Compound 3Aaf, 3-(1-benzothien-2-yl)-N-[(1S,3R)-3-(4H-1,2,4-triazol-4-yl)cyclohexyl]-5-(trifluoromethyl)benzenesulfonamide]", "values": [{"measurement": "IC50", "value": 1.2, "unit": "nM"}]}, {"molecule": "CCc1cc(-c2ccncc2)ccc1S(=O)(=O)N[C@H]1CCC[C@@H](n2cnnc2)C1", "note": "[Compound 2Ak, 2-ethyl-4-pyridin-4-yl-N-[(1S,3R)-3-(4H-1,2,4-triazol-4-yl)cyclohexyl]benzenesulfonamide]", "values": [{"measurement": "IC50", "value": 95, "unit": "nM"}]}, {"molecule": "O=S(=O)(N[C@H]1CCC[C@@H](n2cnnc2)C1)c1cc(-c2cccn3ccnc23)cc(C(F)(F)F)c1", "note": "[Compound 3Aau, 3-imidazo[1,2-a]pyridin-8-yl-N-[(1S,3R)-3-(4H-1,2,4-triazol-4-yl)cyclohexyl]-5-(trifluoromethyl)benzenesulfonamide]", "values": [{"measurement": "IC50", "value": 1.4, "unit": "nM"}]}, {"molecule": "O=S(=O)(N[C@@H]1C[C@H](n2cnnc2)CC(F)(F)C1)c1ccc(-c2ccc(OCC(F)(F)F)nc2)c(F)c1", "note": "[2 Gf, N-[(1R,5S)-3,3-difluoro-5-(4H-1,2,4-triazol-4-yl)cyclohexyl]-3-fluoro-4-[6-(2,2,2-trifluoroethoxy)pyridin-3-yl]benzenesulfonamide]", "values": [{"measurement": "IC50", "value": 4.4, "unit": "nM"}]}, {"molecule": "O=S(=O)(N[C@H]1CCC[C@@H](n2cnnc2)C1)c1cccc(-c2ccccc2)c1", "note": "[Compound 2Mg, N-[(1S,3R)-3-(4H-1,2,4-triazol-4-yl)cyclohexyl]biphenyl-3-sulfonamide]", "values": [{"measurement": "IC50", "value": 30, "unit": "nM"}]}, {"molecule": "Cc1nncn1[C@H]1C[C@@H](NS(=O)(=O)c2ccc(-c3ccc(OCC(F)(F)F)nc3)c(F)c2)CC(F)(F)C1", "note": "[Compound 2Hf, N-[(1R,5S)-3,3-difluoro-5-(3-methyl-4H-1,2,4-triazol-4-yl)cyclohexyl]-3-fluoro-4-[6-(2,2,2-trifluoroethoxy)pyridin-3-yl]benzenesulfonamide]", "values": [{"measurement": "IC50", "value": 0.6, "unit": "nM"}]}, {"molecule": "Cc1nncn1[C@@H]1CCC[C@H](NS(=O)(=O)c2ccc(C(C)C)cc2)C1", "note": "[Compound 2Nq, 4-isopropyl-N-[(1S,3R)-3-(3-methyl-4H-1,2,4-triazol-4-yl)cyclohexyl]benzenesulfonamide]", "values": [{"measurement": "IC50", "value": 28, "unit": "nM"}]}, {"molecule": "O=S(=O)(N[C@H]1CCC[C@@H](n2cnnc2)C1)c1cc(-c2cc3ccccc3o2)cc(C(F)(F)F)c1", "note": "[Compound 3Aae, 3-(1-benzofuran-2-yl)-N-[(1S,3R)-3-(4H-1,2,4-triazol-4-yl)cyclohexyl]-5-(trifluoromethyl)benzenesulfonamide]", "values": [{"measurement": "IC50", "value": 1.8, "unit": "nM"}]}, {"molecule": "CCCCOc1ccc(S(=O)(=O)N[C@H]2CCC[C@@H](n3cnnc3)C2)cc1", "note": "[Compound 2Mw, 4-butoxy-N-[(1S,3R)-3-(4H-1,2,4-triazol-4-yl)cyclohexyl]benzenesulfonamide]", "values": [{"measurement": "IC50", "value": 8.3, "unit": "nM"}]}, {"molecule": "O=S(=O)(N[C@H]1CCC[C@@H](n2cnnc2)C1)c1cc(-c2cncc(F)c2)cc(C(F)(F)F)c1", "note": "[Compound 3Aac, 3-(5-fluoropyridin-3-yl)-N-[(1S,3R)-3-(4H-1,2,4-triazol-4-yl)cyclohexyl]-5-(trifluoromethyl)benzenesulfonamide]", "values": [{"measurement": "IC50", "value": 20, "unit": "nM"}]}, {"molecule": "O=S(=O)(N[C@@H]1C[C@H](n2cnnc2)CC(F)(F)C1)c1cc(-c2ccc(F)cc2)cc(C(F)(F)F)c1", "note": "[3 Cc]", "values": [{"measurement": "IC50", "value": 36, "unit": "nM"}]}, {"molecule": "Cc1nncn1[C@@H]1CCC[C@H](NS(=O)(=O)c2ccc(OCCCCF)cc2)C1", "note": "[Compound 2Nad, 4-(4-fluorobutoxy)-N-[(1S,3R)-3-(3-methyl-4H-1,2,4-triazol-4-yl)cyclohexyl]benzenesulfonamide]", "values": [{"measurement": "IC50", "value": 11, "unit": "nM"}]}, {"molecule": "CCc1cc(-c2cc(OC)cc(OC)c2)ccc1S(=O)(=O)N[C@H]1CCC[C@@H](n2cnnc2)C1", "note": "[Compound 2Au, 3-ethyl-3′,5′-dimethoxy-N-[(1S,3R)-3-(4H-1,2,4-triazol-4-yl)cyclohexyl]biphenyl-4-sulfonamide]", "values": [{"measurement": "IC50", "value": 19, "unit": "nM"}]}, {"molecule": "CCc1cc(-c2noc(C3CC3)n2)ccc1S(=O)(=O)N[C@H]1CCC[C@@H](n2cnnc2C)C1", "note": "[Compound 2Abb, 4-(5-cyclopropyl-1,2,4-oxadiazol-3-yl)-2-ethyl-N-[(1S,3R)-3-(3-methyl-4H-1,2,4-triazol-4-yl)cyclohexyl]benzenesulfonamide]", "values": [{"measurement": "IC50", "value": 2, "unit": "nM"}]}, {"molecule": "CCc1cc(-c2ccc(OC)nc2)ccc1S(=O)(=O)N[C@H]1CCC[C@@H](n2cnnc2)C1", "note": "[Compound 2Ag, 2-ethyl-4-(6-methoxypyridin-3-yl)-N-[(1S,3R)-3-(4H-1,2,4-triazol-4-yl)cyclohexyl]benzenesulfonamide]", "values": [{"measurement": "IC50", "value": 9.9, "unit": "nM"}]}, {"molecule": "CCc1cc(-c2cnc3ccnn3c2)ccc1S(=O)(=O)N[C@H]1CCC[C@@H](n2cnnc2)C1", "note": "[Compound 2Aau, 2-ethyl-4-pyrazolo[1,5-a]pyrimidin-6-yl-N-[(1S,3R)-3-(4H-1,2,4-triazol-4-yl)cyclohexyl]benzenesulfonamide]", "values": [{"measurement": "IC50", "value": 244, "unit": "nM"}]}, {"molecule": "Cc1nncn1[C@@H]1CCC[C@H](NS(=O)(=O)c2ccc(-n3ccc(C4CC4)n3)cc2)C1", "note": "[Compound 2Ns, 4-(3-cyclopropyl-1H-pyrazol-1-yl)-N-[(1S,3R)-3-(3-methyl-4H-1,2,4-triazol-4-yl)cyclohexyl]benzenesulfonamide]", "values": [{"measurement": "IC50", "value": 30, "unit": "nM"}]}, {"molecule": "Cc1nncn1[C@@H]1CCC[C@H](NS(=O)(=O)c2ccc(-c3noc(C4CCC4)n3)cc2OC(F)(F)F)C1", "note": "[Compound 2Bbg, 4-(5-cyclobutyl-1,2,4-oxadiazol-3-yl)-N-[(1S,3R)-3-(3-methyl-4H-1,2,4-triazol-4-yl)cyclohexyl]-2-(trifluoromethoxy)benzenesulfonamide]", "values": [{"measurement": "IC50", "value": 1.5, "unit": "nM"}]}, {"molecule": "Cc1nncn1[C@H]1C[C@@H](NS(=O)(=O)c2ccc(-c3noc(C4CC4)n3)cc2C2CC2)CC(F)(F)C1", "note": "[Compound 2Lj, 2-cyclopropyl-4-(5-cyclopropyl-1,2,4-oxadiazol-3-yl)-N-[(1R,5S)-3,3-difluoro-5-(3-methyl-4H-1,2,4-triazol-4-yl)cyclohexyl]benzenesulfonamide]", "values": [{"measurement": "IC50", "value": 1.3, "unit": "nM"}]}, {"molecule": "Cc1nncn1[C@@H]1CCC[C@H](NS(=O)(=O)c2ccc(-c3ccc(OC(F)(F)F)cc3)cc2OC(F)(F)F)C1", "note": "[Compound 2Bbd, N-[(1S,3R)-3-(3-methyl-4H-1,2,4-triazol-4-yl)cyclohexyl]-3,4′-bis(trifluoromethoxy)biphenyl-4-sulfonamide]", "values": [{"measurement": "IC50", "value": 6.2, "unit": "nM"}]}, {"molecule": "3-bromo-N-[(1S,3R)-3-(4H-1,2,4-triazol-4-yl)cyclohexyl]-5-(trifluoromethyl)benzenesulfonamide [Compound 3b]", "values": [{"measurement": "IC50", "value": 0.9, "unit": "nM"}]}, {"molecule": "CCc1cc(-c2ccccc2F)ccc1S(=O)(=O)N[C@H]1CCC[C@@H](n2cnnc2)C1", "note": "[Compound 2Al, 3-ethyl-2′-fluoro-N-[(1S,3R)-3-(4H-1,2,4-triazol-4-yl)cyclohexyl]benzenesulfonamide]", "values": [{"measurement": "IC50", "value": 22, "unit": "nM"}]}, {"molecule": "CCc1cc(-c2cc(Cl)cn3ccnc23)ccc1S(=O)(=O)N[C@H]1CCC[C@@H](n2cnnc2)C1", "note": "[Compound 2Aat, 4-(6-chloroimidazo[1,2-a]pyridin-8-yl)-2-ethyl-N-[(1S,3R)-3-(4H-1,2,4-triazol-4-yl)cyclohexyl]benzenesulfonamide]", "values": [{"measurement": "IC50", "value": 2.2, "unit": "nM"}]}, {"molecule": "O=S(=O)(N[C@H]1CCC[C@@H](n2cnnc2)C1)c1ccc(-c2noc(C3(O)CC3)n2)cc1C1CC1", "note": "[Compound 2Ke, 2-cyclopropyl-4-[5-(1-hydroxycyclopropyl)-1,2,4-oxadiazol-3-yl]-N-[(1S,3R)-3-(4H-1,2,4-triazol-4-yl)cyclohexyl]benzenesulfonamide]", "values": [{"measurement": "IC50", "value": 337, "unit": "nM"}]}, {"molecule": "CCCCOc1ccc(S(=O)(=O)N[C@H]2CCC[C@@H](n3cnnc3C3CC3)C2)cc1", "note": "[Compound 2Ow, 4-butoxy-N-[(1S,3R)-3-(3-cyclopropyl-4H-1,2,4-triazol-4-yl)cyclohexyl]benzenesulfonamide]", "values": [{"measurement": "IC50", "value": 4.1, "unit": "nM"}]}, {"molecule": "O=S(=O)(N[C@H]1CCC[C@@H](n2cnnc2)C1)c1cc(-c2ccccc2)cc(C(F)(F)F)c1", "note": "[Compound 3Ae, N-[(1S,3R)-3-(4H-1,2,4-triazol-4-yl)cyclohexyl]-5-(trifluoromethyl)biphenyl-3-sulfonamide]", "values": [{"measurement": "IC50", "value": 5.9, "unit": "nM"}]}, {"molecule": "O=S(=O)(N[C@H]1CCC[C@@H](n2cnnc2)C1)c1cc(-c2cccnc2O)cc(C(F)(F)F)c1", "note": "[Compound 3Aj, 3-(2-hydroxypyridin-3-yl)-N-[(1S,3R)-3-(4H-1,2,4-triazol-4-yl)cyclohexyl]-5-(trifluoromethyl)benzenesulfonamide]", "values": [{"measurement": "IC50", "value": 12, "unit": "nM"}]}, {"molecule": "Cc1nncn1[C@H]1C[C@@H](NS(=O)(=O)c2ccc(OCCCCF)cc2)CC(F)(F)C1", "note": "[Compound 2Qad, N-[(1R,5S)-3,3-difluoro-5-(3-methyl-4H-1,2,4-triazol-4-yl)cyclohexyl]-4-(4-fluorobutoxy)-benzenesulfonamide]", "values": [{"measurement": "IC50", "value": 8.8, "unit": "nM"}]}]}
